Laboratory results: US11739100B2, “2,3-dihydro-1h-imidazo{1,2-a}pyrimidin-5-one and this 1,2,3,4-tetrahydropyrimido{1,2-a}pyrimidin-6-one derivatives comprising a substituted morpholine, preparation thereof and pharmaceutical use thereof” (SANOFI, priority 2012, dated 2023)

target: T1, recombinant Vps34 (Homo sapiens, UniProt Q8NEB9); assay: Phosphorylation of phosphatidylinositol (PI) by Vps34 in vitro, ADP detected by TR-FRET (HTRF Transcreener ADP); format: biochemical; conditions: 10 μM ATP, 55 μg/ml PI, approximately 3 nM Vps34, 1 hour at ambient temperature; absolute IC50, mean of two independent experiments; read-out: IC50 activity range
T1 construct: purchased Invitrogen PV5126
T1 sequence (Q8NEB9 whole entry): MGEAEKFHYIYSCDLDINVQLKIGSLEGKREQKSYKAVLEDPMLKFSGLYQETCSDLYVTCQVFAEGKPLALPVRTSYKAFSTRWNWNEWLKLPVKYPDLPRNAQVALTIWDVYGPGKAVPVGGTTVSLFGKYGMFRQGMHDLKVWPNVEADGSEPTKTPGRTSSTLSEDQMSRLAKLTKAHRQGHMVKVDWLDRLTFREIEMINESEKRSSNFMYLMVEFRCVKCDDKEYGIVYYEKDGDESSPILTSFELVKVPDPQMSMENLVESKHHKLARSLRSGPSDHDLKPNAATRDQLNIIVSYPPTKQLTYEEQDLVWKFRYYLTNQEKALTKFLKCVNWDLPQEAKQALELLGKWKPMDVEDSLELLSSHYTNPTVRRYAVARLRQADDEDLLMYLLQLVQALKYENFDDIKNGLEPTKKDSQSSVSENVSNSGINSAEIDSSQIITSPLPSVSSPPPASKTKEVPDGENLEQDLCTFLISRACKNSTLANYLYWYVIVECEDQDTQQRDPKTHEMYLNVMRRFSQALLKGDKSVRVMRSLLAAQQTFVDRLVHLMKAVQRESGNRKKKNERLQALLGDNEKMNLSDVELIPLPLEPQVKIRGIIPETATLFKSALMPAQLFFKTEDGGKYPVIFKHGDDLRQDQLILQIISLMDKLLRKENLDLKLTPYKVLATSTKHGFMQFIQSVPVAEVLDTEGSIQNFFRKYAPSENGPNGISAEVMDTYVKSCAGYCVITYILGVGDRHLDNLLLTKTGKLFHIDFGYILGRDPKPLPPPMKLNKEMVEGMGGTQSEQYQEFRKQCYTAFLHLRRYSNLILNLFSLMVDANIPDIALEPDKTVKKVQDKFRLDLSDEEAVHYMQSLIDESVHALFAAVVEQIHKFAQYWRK

IC50	Structure (SMILES)
< 10 nM	COc1cc(N2c3nc(N4CCOC[C@H]4C)cc(=O)n3CC[C@H]2C(F)(F)F)ccn1 [Example 80, (S)-9-(2-Methoxy-pyridin-4-yl)-2-((R)-3-methylmorpholin-4-yl)-8-trifluoromethyl-6,7,8,9-tetrahydro-pyrimido[1,2-a]-pyrimidin-4-one]
< 10 nM	C[C@@H]1COCCN1c1cc(=O)n2c(n1)N(c1ccc(C(F)(F)F)nc1)[C@H](C(F)(F)F)CC2 [Example 81, (S)-2-((R)-3-Methyl-morpholin-4-yl)-8-trifluoromethyl-9-(6-trifluoromethylpyridin-3-yl)-6,7,8,9-tetrahydro-pyrimido[1,2-a]-pyrimidin-4-one]
< 10 nM	C[C@@H]1COCCN1c1cc(=O)n2c(n1)N(CCOCC(F)(F)F)[C@H](C(F)(F)F)CC2 [Example 82, (S)-2-((R)-3-Methyl-morpholin-4-yl)-9-[2-(2,2,2-trifluoro-ethoxy)ethyl]-8-trifluoromethyl-6,7,8,9-tetrahydro-pyrimido[1,2-a]-pyrimidin-4-one]
< 10 nM	Cc1ccc(N2c3nc(N4CCOC[C@H]4C)cc(=O)n3CC[C@H]2C(F)(F)F)cn1 [Example 83, (S)-2-((R)-3-Methyl-morpholin-4-yl)-9-(6-methylpyridin-3-yl)-8-trifluoromethyl-6,7,8,9-tetrahydro-pyrimido[1,2-a]-pyrimidin-4-one]
< 10 nM	C[C@@H]1COCCN1c1cc(=O)n2c(n1)N(CC(C)(C)O)[C@H](C(F)(F)F)CC2 [Example 84, (S)-9-(2-Hydroxy-2-methylpropyl)-2-((R)-3-methylmorpholin-4-yl)-8-trifluoromethyl-6,7,8,9-tetrahydro-pyrimido[1,2-a]-pyrimidin-4-one]
< 10 nM	CC(C)Oc1ccc(N2c3nc(N4CCOC[C@H]4C)cc(=O)n3CC[C@H]2C(F)(F)F)cn1 [Example 85, (S)-9-(6-Isopropoxy-pyridin-3-yl)-2-((R)-3-methylmorpholin-4-yl)-8-trifluoromethyl-6,7,8,9-tetrahydro-pyrimido[1,2-a]-pyrimidin-4-one]
< 10 nM	C[C@@H]1COCCN1c1cc(=O)n2c(n1)N(Cc1ccc(Cl)cn1)[C@H](C(F)(F)F)CC2 [Example 86, (S)-9-(5-Chloro-pyridin-2-ylmethyl)-2-((R)-3-methyl-morpholin-4-yl)-8-trifluoromethyl-6,7,8,9-tetrahydro-pyrimido[1,2-a]-pyrimidin-4-one]
< 10 nM	C[C@@H]1COCCN1c1cc(=O)n2c(n1)N(Cc1cncs1)[C@H](C(F)(F)F)CC2 [Example 87, (S)-2-((R)-3-Methyl-morpholin-4-yl)-9-thiazol-5-ylmethyl-8-trifluoromethyl-6,7,8,9-tetrahydro-pyrimido[1,2-a]-pyrimidin-4-one]
< 10 nM	C[C@@H]1COCCN1c1cc(=O)n2c(n1)N(c1ccc(C3CCC3)nc1)[C@H](C(F)(F)F)CC2 [Example 88, (S)-9-(6-Cyclobutyl-pyridin-3-yl)-2-((R)-3-methylmorpholin-4-yl)-8-trifluoromethyl-6,7,8,9-tetrahydro-pyrimido[1,2-a]-pyrimidin-4-one]
< 10 nM	C[C@@H]1COCCN1c1cc(=O)n2c(n1)N(c1ccnc(C3CC3)c1)[C@H](C(F)(F)F)CC2 [Example 89, (S)-9-(2-Cyclopropyl-pyridin-4-yl)-2-((R)-3-methylmorpholin-4-yl)-8-trifluoromethyl-6,7,8,9-tetrahydro-pyrimido[1,2-a]-pyrimidin-4-one]
< 10 nM	COCCN1c2nc(N3CCOC[C@H]3C)cc(=O)n2CC[C@H]1C(F)(F)F [Example 90, (S)-9-(2-Methoxy-ethyl)-2-((R)-3-methyl-morpholin-4-yl)-8-trifluoromethyl-6,7,8,9-tetrahydro-pyrimido[1,2-a]-pyrimidin-4-one]
< 10 nM	C[C@@H]1COCCN1c1cc(=O)n2c(n1)N(Cc1cnco1)[C@H](C(F)(F)F)CC2 [Example 91, (S)-2-((R)-3-Methyl-morpholin-4-yl)-9-oxazol-5-ylmethyl-8-trifluoromethyl-6,7,8,9-tetrahydro-pyrimido[1,2-a]-pyrimidin-4-one]
< 10 nM	C[C@@H]1COCCN1c1cc(=O)n2c(n1)N(Cc1ccc(F)cn1)[C@H](C(F)(F)F)CC2 [Example 92, (S)-9-(5-Fluoropyridin-2-ylmethyl)-2-((R)-3-methylmorpholin-4-yl)-8-trifluoromethyl-6,7,8,9-tetrahydro-pyrimido[1,2-a]-pyrimidin-4-one]
< 10 nM	Cc1nc(CN2c3nc(N4CCOC[C@H]4C)cc(=O)n3CC[C@H]2C(F)(F)F)c(C)o1 [Example 93, (S)-9-(2,5-Dimethyl-oxazol-4-ylmethyl)-2-((R)-3-methyl-morpholin-4-yl)-8-trifluoromethyl-6,7,8,9-tetrahydro-pyrimido[1,2-a]-pyrimidin-4-one]
< 10 nM	C[C@@H]1COCCN1c1cc(=O)n2c(n1)N(Cc1cncc(F)c1)[C@H](C(F)(F)F)CC2 [Example 94, (S)-9-(5-Fluoropyridin-3-ylmethyl)-2-((R)-3-methylmorpholin-4-yl)-8-trifluoromethyl-6,7,8,9-tetrahydro-pyrimido[1,2-a]-pyrimidin-4-one]
< 10 nM	Cc1nnc(CN2c3nc(N4CCOC[C@H]4C)cc(=O)n3CC[C@H]2C(F)(F)F)o1 [Example 96, (S)-2-((R)-3-Methyl-morpholin-4-yl)-9-(5-methyl-[1,3,4]oxadiazol-2-yl-methyl)-8-trifluoromethyl-6,7,8,9-tetrahydro-pyrimido[1,2-a]-pyrimidin-4-one]
< 10 nM	C[C@@H]1COCCN1c1nc2n(c(=O)c1F)CC[C@@H](C(F)(F)F)N2CC(=O)C(C)(C)C [Example 97, (S)-9-(3,3-Dimethyl-2-oxobutyl)-3-fluoro-2-((R)-3-methyl-morpholin-4-yl)-8-trifluoromethyl-6,7,8,9-tetrahydro-pyrimido[1,2-a]-pyrimidin-4-one]
< 10 nM	C[C@@H]1COCCN1c1cc(=O)n2c(n1)N(Cc1ccc(Cl)s1)[C@H](C(F)(F)F)CC2 [Example 98, (S)-9-(5-Chloro-thiophen-2-ylmethyl)-2-((R)-3-methyl-morpholin-4-yl)-8-trifluoromethyl-6,7,8,9-tetrahydro-pyrimido[1,2-a]-pyrimidin-4-one]
< 10 nM	C[C@@H]1COCCN1c1cc(=O)n2c(n1)N(CC(=O)c1ccccc1)[C@H](C(F)(F)F)CC2 [Example 99, (S)-2-((R)-3-Methyl-morpholin-4-yl)-9-(2-oxo-2-phenylethyl)-8-trifluoromethyl-6,7,8,9-tetrahydro-pyrimido[1,2-a]-pyrimidin-4-one]
< 10 nM	CO[C@H](CN1c2nc(N3CCOC[C@H]3C)cc(=O)n2CC[C@H]1C(F)(F)F)c1ccccc1 [Example 100, (S)-9-((S)-2-Methoxy-2-phenylethyl)-2-((R)-3-methylmorpholin-4-yl)-8-trifluoromethyl-6,7,8,9-tetrahydro-pyrimido[1,2-a]-pyrimidin-4-one]
< 10 nM	Cc1cc(CN2c3nc(N4CCOC[C@H]4C)cc(=O)n3CC[C@H]2C(F)(F)F)on1 [Example 101, (S)-9-(3-Methyl-isoxazol-5-ylmethyl)-2-((R)-3-methyl-morpholin-4-yl)-8-trifluoromethyl-6,7,8,9-tetrahydro-pyrimido[1,2-a]-pyrimidin-4-one]
< 10 nM	C[C@@H]1COCCN1c1cc(=O)n2c(n1)N(CC(=O)c1ccccn1)CC[C@@H]2C(F)(F)F [Example 102, (R)-2-((R)-3-Methyl-morpholin-4-yl)-9-(2-oxo-2-pyridin-2-yl-ethyl)-6-trifluoromethyl-6,7,8,9-tetrahydro-pyrimido[1,2-a]-pyrimidin-4-one]
< 10 nM	C[C@@H]1COCCN1c1cc(=O)n2c(n1)N(Cc1cocn1)[C@H](C(F)(F)F)CC2 [Example 103, (S)-2-((R)-3-Methyl-morpholin-4-yl)-9-oxazol-4-ylmethyl-8-trifluoromethyl-6,7,8,9-tetrahydro-pyrimido[1,2-a]-pyrimidin-4-one]
10 to 100 nM	Cc1ccc(S(=O)(=O)N2c3nc(N4CCOC[C@H]4C)cc(=O)n3CC[C@H]2C(F)(F)F)cc1 [Example 104, (S)-2-((R)-3-Methyl-morpholin-4-yl)-9-(toluene-4-sulfonyl)-8-trifluoromethyl-6,7,8,9-tetrahydro-pyrimido[1,2-a]-pyrimidin-4-one]
10 to 100 nM	C[C@@H]1COCCN1c1cc(=O)n2c(n1)N(Cc1ccno1)CC[C@@H]2C(F)(F)F [Example 105, (R)-9-Isoxazol-5-yl-methyl-2-((R)-3-methylmorpholin-4-yl)-6-trifluoromethyl-6,7,8,9-tetrahydro-pyrimido[1,2-a]-pyrimidin-4-one]
< 10 nM	C[C@@H]1COCCN1c1cc(=O)n2c(n1)N(c1ccc(C3CC3)nc1)CC[C@@H]2C(F)(F)F [Example 107, (R)-9-(6-Cyclopropyl-pyridin-3-yl)-2-((R)-3-methylmorpholin-4-yl)-6-trifluoromethyl-6,7,8,9-tetrahydro-pyrimido[1,2-a]-pyrimidin-4-one]
< 10 nM	C[C@@H]1COCCN1c1cc(=O)n2c(n1)N(c1ccnc(Cl)c1)CC[C@@H]2C(F)(F)F [Example 108, (R)-9-(2-Chloro-pyridin-4-yl)-2-((R)-3-methylmorpholin-4-yl)-6-trifluoromethyl-6,7,8,9-tetrahydro-pyrimido[1,2-a]-pyrimidin-4-one]
< 10 nM	COc1cc(N2CC[C@H](C(F)(F)F)n3c2nc(N2CCOC[C@H]2C)cc3=O)ccn1 [Example 109, (R)-9-(2-Methoxy-pyridin-4-yl)-2-((R)-3-methylmorpholin-4-yl)-6-trifluoromethyl-6,7,8,9-tetrahydro-pyrimido[1,2-a]-pyrimidin-4-one]
10 to 100 nM	C[C@@H]1COCCN1c1cc(=O)n2c(n1)N(Cc1cocn1)CC[C@@H]2C(F)(F)F [Example 110, (R)-2-((R)-3-Methyl-morpholin-4-yl)-9-oxazol-4-ylmethyl-6-trifluoromethyl-6,7,8,9-tetrahydro-pyrimido[1,2-a]-pyrimidin-4-one]
< 10 nM	C[C@@H]1COCCN1c1nc2n(c(=O)c1F)CC[C@@H](C(F)(F)F)N2Cc1cnco1 [Example 111, (S)-3-Fluoro-2-((R)-3-methylmorpholin-4-yl)-9-oxazol-5-ylmethyl-8-trifluoromethyl-6,7,8,9-tetrahydro-pyrimido[1,2-a]-pyrimidin-4-one]
